In patent US9005579B2 (priority 2010, dated 2015):

Key:
E. coli O111:B4 = conditions: overnight incubation, inhibitory concentrations; cited from earlier work
sortase = sortase (Staphylococcus aureus, UniProt Q2FV99); conditions: in vitro and in vivo; react with Cys184; cited from earlier work
[1] = D-Ala-D-Ala termini replaced with D-Ala-D-Lac in VRE; cited from earlier work
[2] = test system: Protein A negative Staphylococcus aureus derived from strain 8325-4; assay: Growth of S. aureus with sub-MIC antibiotic with or without mouse anti-sortase monoclonal antibody (OD600, 12 h); assay type: cell-based; conditions: sub-MIC antibiotic + tissue culture medium, no Ab
Description: In a separate set of experiments, we assessed the effect of anti-sortase antibodies, in the presence and absence of antibiotic, on the growth of the staphylococci. Monoclonal supernatants were used for these experiments and tissue culture media used as controls. […] Exemplary growth curve results with monoclonal antibody 7C2 at 1:10 dilution are depicted in FIG. 5. The growth results are tabulated in TABLE 3 below based on final OD readings of multiple growth experiments. In each instance, significant growth inhibition is observed with a combination of sub-MIC antibiotics and anti-sortase antibody.
Protein A negative Staphylococcus aureus derived from strain 8325-4 was grown to OD600 0.5 in Brain-Heart Infusion medium at 37° C. (Patel A H et al (1987) Infect Immun 55(12):3103-3110). When applicable, antibiotics were added to the media at sub-MIC doses.
Mouse anti-sortase monoclonals were added to each cell-antibiotic culture at a dilution of either 1:10 or 1:100. OD600 values were measured every 5 mins for 12 hours in a 96-well spectrophotometer.

[3] = test system: Staphylococci (protein A negative S. aureus strain 8325-4); assay: Ampicillin and penicillin MIC (serial 2-fold dilutions, microtiter plate); assay type: cell-based, Staphylococcus aureus; conditions: for highest dilution of antibiotic showing normal growth (sub-MIC used in experiments): 12 h, BHI media; for growth of staphylococci in the presence of sub-MIC of antibiotic: no antibody
Method: The MIC dose of two cell wall affecting antibiotics, ampicillin and penicillin, was determined for the protein A negative S. aureus strain 8325-4.
Serial 2-fold dilutions of penicillin and ampicillin were prepared in a microtiter plate. Overnight culture of Staphylococci were diluted 1:100 in BHI media and 100 ul was added to each well and the plate incubated for 12 h. Wells without antibiotic served as controls. The highest dilution of antibiotic showing normal growth was used for further experiments. Ampicillin at 0.1 ug/ml and Penicillin at 0.02 ug/ml were used in these experiments.

Sequence of sortase (Q2FV99 whole entry): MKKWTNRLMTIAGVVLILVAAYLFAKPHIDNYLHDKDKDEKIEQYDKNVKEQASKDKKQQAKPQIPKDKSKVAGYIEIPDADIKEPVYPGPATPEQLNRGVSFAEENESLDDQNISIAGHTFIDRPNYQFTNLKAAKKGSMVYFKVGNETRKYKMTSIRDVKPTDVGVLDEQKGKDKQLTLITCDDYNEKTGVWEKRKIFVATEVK

gentamicin
HA-1A binding after exposure to the antibiotic (E. coli O111:B4): not enhanced

C[N+](C)(C)CCSS(C)(=O)=O [MTSET]
sortase inhibition (sortase): inhibit sortase in vitro and in vivo

CN[C@H](CC(C)C)C(=O)N[C@H]1C(=O)N[C@@H](CC(N)=O)C(=O)N[C@H]2C(=O)N[C@H]3C(=O)N[C@H](C(=O)N[C@H](C(=O)O)c4cc(O)cc(O)c4-c4cc3ccc4O)[C@H](O)c3ccc(c(Cl)c3)Oc3cc2cc(c3O[C@@H]2O[C@H](CO)[C@@H](O)[C@H](O)[C@H]2O[C@H]2C[C@](C)(N)[C@H](O)[C@H](C)O2)Oc2ccc(cc2Cl)[C@H]1O [vancomycin]
decrease in vancomycin affinity [1]: 1000 fold

CC(C)(O/N=C(\C(=O)N[C@@H]1C(=O)N2C(C(=O)[O-])=C(C[n+]3ccccc3)CS[C@H]12)c1csc(N)n1)C(=O)O [caftazidime]
HA-1A binding after exposure to the antibiotic (E. coli O111:B4): dose-dependent enhancement of HA-1A binding

Penicillin [PCN]
Average OD ([2]; control of Ab 1:10): 0.2446
Final OD Reading 1 ([2]; control of Ab 1:10): 0.218
Final OD Reading 2 ([2]; control of Ab 1:10): 0.2712
Average OD ([2]; control of Ab 1:100): 0.3534
Final OD Reading 1 ([2]; control of Ab 1:100): 0.3508
Final OD Reading 2 ([2]; control of Ab 1:100): 0.3561
highest dilution of antibiotic showing normal growth (sub-MIC used in experiments) [3]: 0.02 µg/mL
growth of staphylococci in the presence of sub-MIC of antibiotic [3]: grow similar to control bacteria without antibiotic

CC1(C)S[C@@H]2[C@H](NC(=O)[C@H](N)c3ccccc3)C(=O)N2[C@H]1C(=O)O [AMP, Ampicillin]
Average OD ([2]; control of Ab 1:10): 0.3308
Final OD Reading 1 ([2]; control of Ab 1:10): 0.2975
Final OD Reading 2 ([2]; control of Ab 1:10): 0.3641
Average OD ([2]; control of Ab 1:100): 0.4421
Final OD Reading 1 ([2]; control of Ab 1:100): 0.4216
Final OD Reading 2 ([2]; control of Ab 1:100): 0.4627
highest dilution of antibiotic showing normal growth (sub-MIC used in experiments) [3]: 0.1 µg/mL
growth of staphylococci in the presence of sub-MIC of antibiotic [3]: grow similar to control bacteria without antibiotic

CS(=O)(=O)SCCS(=O)(=O)O [(2-sulfonatoethyl)methane-thiosulfonate]
sortase inhibition (sortase): inhibit sortase in vitro and in vivo
